The series in a line: Solubility of dye or dye composition in water. It is filed as physicochemical. How it is done: The method of Example 1 was repeated except that the condensation reaction with ethanolamine in stage (iv) was stopped after 2.5 hours. The product was a mixture of Dye (A), Dye (B) and Dye (C) in relative proportions 43:35:22 by weight. This dye mixture has a solubility of 10% in water at 20° C. compared to a solubility of 3% for Dye (A) alone under the same conditions.
The ratio of Dyes (A), (B) and (C) in Example 4 may be varied by altering the time and temperature of the ethanolamine condensation step (Example 1, step (iv)). The solubility of a variety of dye compositions in water at 20° C. and pH 9.5 is shown in Table 2 below together with optical density, light fastness (ΔE after 50 hours) and wet-fastness results of prints prepared from these compositions. The prints were prepared by printing an ink formed by dissolving 2.5 parts of each composition in 97.5 parts of a mixture consisting of 88 parts water, 5 parts thiodiglycol, 5 parts 2-pyrrolidone and 2 parts Surfynol 465™ (a non-ionic surfactant) onto the substrate shown in the third column of Table 2 using a Canon 4300 ink jet printer.

These results are taken from US6482255B1, “Disazodyes for ink jet printing” (Avecia Limited, priority 1997, dated 2002).

Each structure is given as a SMILES string.

Regarding `CNCCCNc1nc(NCCO)nc(Nc2ccc(/N=N/c3c(N)ccc4cc(S(=O)(=O)O)cc(O)c34)c(S(=O)(=O)O)c2)n1` [Dye (1)], the solubility in water (water at 20° C.) is 3%. Further, the “Solubility (%)” value (water at 20° C. and pH 9.5) came to 3%.
